Several values for one entry are separate records, joined by “and”; a condition that tells them apart may be missing. Equal values may be shown once. Toxic doses and inconclusive results are not listed.

This experiment relates to P388 leukemia ip, CD2F1 mice, survival T/C. The experiment can be described thus: NCI In Vivo Anticancer Drug Screen. Data for tumor model P388 Leukemia (intraperitoneal) in CD2F1 (CDF1) mice. Conditions: endpoint: median survival time, higher = longer survival. In outline: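 Mice carrying the transplanted tumor received test compound or vehicle. Survival was recorded in each group, and the value is the treated-group measurement divided by that of the vehicle-treated control group.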

The mark [1] stands for this setting: dose: 50.0 mg/kg/injection, schedule: Q01DX009 (ip), vehicle: saline.
The mark [2] stands for this setting: dose: 60.0 mg/kg/injection, schedule: Q01DX005 (ip), vehicle: saline with Tween-80.
Where [3] appears, read: dose: 120.0 mg/kg/injection, schedule: Q01DX005 (ip), vehicle: saline with Tween-80.
Where [4] appears, read: dose: 12.5 mg/kg/injection, schedule: Q01DX009 (ip), vehicle: saline with Tween-80.
Setting [5] is: dose: 25.0 mg/kg/injection, schedule: Q01DX009 (ip), vehicle: saline with Tween-80.
[6] abbreviates: dose: 50.0 mg/kg/injection, schedule: Q01DX009 (ip), vehicle: saline with Tween-80.
Where [7] appears, read: dose: 240.0 mg/kg/injection, schedule: Q01DX005 (ip), vehicle: saline with Tween-80.
The mark [8] stands for this setting: dose: 100.0 mg/kg/injection, schedule: Q04DX002 (ip), vehicle: Klucel (hydroxypropylcellulose) (HPC).
Setting [9] is: dose: 60.0 mg/kg/injection, schedule: Q01DX005 (ip), vehicle: saline.
Where [10] appears, read: dose: 120.0 mg/kg/injection, schedule: Q01DX005 (ip), vehicle: saline.
Setting [11] is: dose: 240.0 mg/kg/injection, schedule: Q01DX005 (ip), vehicle: saline.

`S=P(N1CCCCCC1)(N1CC1)N1CC1`: the T/C (dose: 12.5 mg/kg/injection, schedule: Q04DX003 (ip), vehicle: saline with Tween-80) is 109 % of control; the T/C (dose: 16.5 mg/kg/injection, schedule: Q01DX009 (ip), vehicle: saline) was 108 % of control; the T/C (dose: 33.0 mg/kg/injection, schedule: Q04DX003 (ip), vehicle: saline sonified) was 109 % of control; the T/C (dose: 37.5 mg/kg/injection, schedule: Q01DX009 (ip), vehicle: saline) was 183 % of control; the T/C under setting [1] was 95 % of control; the T/C (dose: 50.0 mg/kg/injection, schedule: Q04DX003 (ip), vehicle: saline sonified) is 118 % of control. Further, under “dose: 50.0 mg/kg/injection, schedule: Q04DX003 (ip), vehicle: saline with Tween-80”, the T/C is 154 % of control.
`CC(C)Cc1cc(C(F)(F)F)nc(NNc2nc(CC(C)C)cc(C(F)(F)F)n2)n1`: the T/C was 90 % of control (dose: 50.0 mg/kg/injection, schedule: Q01DX009 (ip), vehicle: Klucel (hydroxypropylcellulose) (HPC)) and 87 % of control (dose: 100.0 mg/kg/injection, schedule: Q01DX009 (ip), vehicle: Klucel (hydroxypropylcellulose) (HPC)).
As for `C/C(=N\N=c1\sc2ccccc2n1CC(=O)O)c1ccc(C)cc1`, the T/C was 102 % of control (dose: 100.0 mg/kg/injection, schedule: Q01DX001 (ip), vehicle: saline with Tween-80); 106 % of control (dose: 200.0 mg/kg/injection, schedule: Q01DX001 (ip), vehicle: saline with Tween-80); 101 % of control (dose: 400.0 mg/kg/injection, schedule: Q01DX001 (ip), vehicle: saline with Tween-80).
Take `COC(=O)c1nc(=S)[nH]c(C(=O)OC)c1C(=O)c1ccc(O)cc1O`: the T/C is, setting by setting: under setting [2], 99 % of control; under setting [3], 98 % of control.
As for `O=C1C=C(Br)C(=O)C(Br)=C1`, the T/C was 101 % of control (dose: 1.56 mg/kg/injection, schedule: Q01DX009 (ip), vehicle: distilled water + Tween-80); 95 % of control (dose: 3.13 mg/kg/injection, schedule: Q01DX009 (ip), vehicle: distilled water + Tween-80); 100 % of control (dose: 6.25 mg/kg/injection, schedule: Q01DX009 (ip), vehicle: distilled water + Tween-80).
For `Clc1ccc(N=c2ccn3ccccc3c2)cc1Cl`, the T/C runs as follows: under setting [4], 94 % of control; under setting [5], 94 % of control; under setting [6], 97 % of control.
As for `COC(=O)C(N)CCCCNc1ccc2c(cc1=O)C(NC(C)=O)CCc1cc(OC)c(OC)c(OC)c1-2` (stereo not given), the T/C is 119 % of control under setting [5]; 117 % of control (dose: 53.0 mg/kg/injection, schedule: Q01DX009 (ip), vehicle: saline); 117 % of control (dose: 80.0 mg/kg/injection, schedule: Q01DX009 (ip), vehicle: saline); 150 % of control (dose: 270.0 mg/kg/injection, schedule: Q01DX009 (ip), vehicle: saline).
For `CCOC(=O)c1ccc(NC(=O)OCc2ccco2)cc1`, the T/C is, setting by setting: (dose: 60.0 mg/kg/injection, schedule: Q01DX005 (ip), vehicle: Klucel (hydroxypropylcellulose) (HPC)) 89 % of control; (dose: 120.0 mg/kg/injection, schedule: Q01DX005 (ip), vehicle: Klucel (hydroxypropylcellulose) (HPC)) 92 % of control; (dose: 240.0 mg/kg/injection, schedule: Q01DX005 (ip), vehicle: Klucel (hydroxypropylcellulose) (HPC)) 91 % of control.
Regarding `O=C(O)CC1SC(c2ccccc2Cl)N(/N=C/c2ccccc2Cl)C1=O` (stereo not given), the T/C under setting [4] is 102 % of control; the T/C under setting [5] is 98 % of control; the T/C under setting [6] is 99 % of control and 87 % of control.
With `CCOC(=O)C1=C(Nc2cccc3c(NC4=C(C(=O)OCC)C(=O)CO4)cccc23)OCC1=O`, the T/C under setting [2] is 109 % of control, the T/C under setting [3] is 99 % of control and the T/C under setting [7] is 98 % of control.
Consider `C=CC12CC(=O)N3CCc4ccccc4C3(C1)C2`, for which the T/C reads like this: under setting [8], 110 % of control; (dose: 200.0 mg/kg/injection, schedule: Q04DX002 (ip), vehicle: Klucel (hydroxypropylcellulose) (HPC)) 100 % of control; (dose: 400.0 mg/kg/injection, schedule: Q04DX002 (ip), vehicle: Klucel (hydroxypropylcellulose) (HPC)) 97 % of control.
For `Cc1nc2sc3cc4ccccc4cc3n2c(=O)c1CN1CCCCC1`, the T/C runs as follows: (dose: 25.0 mg/kg/injection, schedule: Q04DX002 (ip), vehicle: Klucel (hydroxypropylcellulose) (HPC)) 98 % of control; (dose: 50.0 mg/kg/injection, schedule: Q04DX002 (ip), vehicle: Klucel (hydroxypropylcellulose) (HPC)) 113 % of control; under setting [8], 113 % of control.
For the molecule `CCOC(=O)n1c2ccccc2c(=O)n1CCO`, the T/C was 105 % of control under setting [2], 97 % of control under setting [3] and 91 % of control under setting [7].
Turning to `CC(C)=CCC/C(C)=C/CC/C(C)=C/CC/C=C(\C)CC/C=C(\C)CCC[N+](C)(C)[O-]`, the T/C is, setting by setting: under setting [9], 101 % of control; under setting [10], 101 % of control; under setting [11], 99 % of control.
For `CCOC(=O)C1=C(Nc2ccc(OC)cc2)C(N)=NC1=N`, the T/C reads like this: (dose: 6.25 mg/kg/injection, schedule: Q01DX009 (ip), vehicle: suspension in saline) 100 % of control; (dose: 12.5 mg/kg/injection, schedule: Q01DX009 (ip), vehicle: suspension in saline) 102 % of control and 110 % of control; (dose: 25.0 mg/kg/injection, schedule: Q01DX009 (ip), vehicle: suspension in saline) 106 % of control and 117 % of control; (dose: 50.0 mg/kg/injection, schedule: Q01DX009 (ip), vehicle: suspension in saline) 102 % of control and 121 % of control; (dose: 100.0 mg/kg/injection, schedule: Q01DX009 (ip), vehicle: suspension in saline) 92 % of control.
Take `COC(=O)C1=C/CCCN(CCC2OCCO2)/C=C\1C(=O)OC`: the T/C is 106 % of control (dose: 100.0 mg/kg/injection, schedule: Q04DX003 (ip), vehicle: saline with Tween-80); 99 % of control (dose: 200.0 mg/kg/injection, schedule: Q04DX003 (ip), vehicle: saline with Tween-80); 108 % of control (dose: 400.0 mg/kg/injection, schedule: Q04DX003 (ip), vehicle: saline with Tween-80).
Turning to `CN(c1ccccc1)c1cc(=O)nc2ccccn12`, the T/C is, setting by setting: under setting [9], 105 % of control; under setting [10], 98 % of control; under setting [11], 105 % of control.
In the case of `CNS(=O)(=O)O`, the T/C (dose: 12.5 mg/kg/injection, schedule: Q01DX009 (ip), vehicle: saline) was 86 % of control; the T/C (dose: 25.0 mg/kg/injection, schedule: Q01DX009 (ip), vehicle: saline) is 104 % of control; the T/C under setting [1] was 105 % of control; the T/C (dose: 100.0 mg/kg/injection, schedule: Q01DX009 (ip), vehicle: saline) was 100 % of control.

Values taken from PubChem BioAssay AID330 (DTP/NCI, 2004).
